Laboratory results taken from patent US8722849B2, “Polypeptides” (Novo Nordisk A/S, priority 2011, dated 2014).
≈ marks a conversion by molar mass, not a printed value. Like-named read-outs stand apart in the source and are kept apart here. Starred links: 1 amine or outer side, 2 acyl side, 3 side chain; linkers in the order of their positions; H or OH if unused. Positions of bridges follow the written chain, without caps; N, C: chain ends. Residues, ends and D or L forms follow the SMILES beside them. *: point of attachment. C20 diacid = O=C(O)CCCCCCCCCCCCCCCCCCC(=O)*; γGlu = O=C(O)[C@H](CCC(=O)[*:2])N[*:1]

Columns and labels:
[1] = Assay (IV) determination of solubility; format: physicochemical
Outline: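 Stock ~500 nmol/ml in water; 1:1 with 100 mM buffer, pH 3.0–8.0 (glycylglycine ≤5.0, bistrispropane ≥6.0); 18 h RT; spin; HPLC quantitation of soluble polypeptide.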

[2] = target: T1, rat amylin 3(a) receptor (rat calcitonin(a) receptor + rat RAMP3) (Rattus norvegicus, UniProt P32214+Q9JJ73); test: Assay (II)b functional cAMP FlashPlate assay, rat amylin receptor; format: cell-based; conditions: Table 11
T1 construct: expressed in transfected cells; host or cells: BHK tk'ts 13
T1 sequence (P32214 25-479 isoform P32214-2 limits assumed): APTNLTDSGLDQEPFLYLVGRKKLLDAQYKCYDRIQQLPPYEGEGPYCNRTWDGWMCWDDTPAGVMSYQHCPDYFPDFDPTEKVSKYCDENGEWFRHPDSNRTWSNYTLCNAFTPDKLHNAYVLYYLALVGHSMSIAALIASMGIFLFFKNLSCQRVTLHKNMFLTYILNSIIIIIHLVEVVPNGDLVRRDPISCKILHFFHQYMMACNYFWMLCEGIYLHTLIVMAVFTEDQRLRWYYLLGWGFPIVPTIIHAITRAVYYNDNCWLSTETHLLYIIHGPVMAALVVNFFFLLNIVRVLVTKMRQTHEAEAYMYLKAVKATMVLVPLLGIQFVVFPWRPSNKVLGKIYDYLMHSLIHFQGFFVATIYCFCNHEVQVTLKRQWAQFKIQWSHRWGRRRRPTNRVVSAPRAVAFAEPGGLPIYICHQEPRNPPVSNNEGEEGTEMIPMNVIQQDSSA
T1 sequence (Q9JJ73 23-147 partner): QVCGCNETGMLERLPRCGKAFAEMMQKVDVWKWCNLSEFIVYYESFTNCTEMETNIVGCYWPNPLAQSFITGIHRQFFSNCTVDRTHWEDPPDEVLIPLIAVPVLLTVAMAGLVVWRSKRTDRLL
Source text: (§1) Assay (II)b—Rat Calcitonin and Rat Amylin Receptor Assays
(§2) Activation of calcitonin and amylin (coexpression of calcitonin receptor and receptor activity modifying proteins (RAMP)) receptors lead to increased intracellular concentrations of cAMP. In order to quantify the cAMP levels in transiently transfected cells the Adenylyl Cyclase Activation FlashPlate® Assay from […] was used. The basic principle of the FlashPlate® Assay is a competition between radioactive and non-radioactive cAMP generated by the cells for a fixed number of binding sites.
(§3) Construction of rat calcitonin(a)—and rat amylin 3(a)-receptor cells.
(§4) BHK tk'ts 13 cells were transiently transfected with either rat calcitonin (a) receptor or amylin 3 (a) receptor (rat calcitonin(a) receptor+ rat RAMP3) using FuGENE® 6 (ROCHE), according to the manufacturers recommendations.
(§5) 24 hours after transient transfection the cells (rat calcitonin(a)—or rat amylin 3(a)—receptor cells) were added (100.000 cells/well) to the 96 well FlashPlates® with samples or standard in FlashPlate stimulation buffer with IBMX and incubated for 30 min. Detection mix was created according to manufacturers protocol and scintillation measured after 3 h of incubation on TopCounter™ (Packard).

[3] = target: T2, human calcitonin receptor (Homo sapiens, UniProt P30988); test: Assay (II)a functional CRE-luciferase assay, human calcitonin receptor; format: cell-based; conditions: Table 7; human calcitonin (CTa) receptor
T2 construct: expressed in transfected cells; host or cells: BHK570
T2 sequence (P30988 25-474): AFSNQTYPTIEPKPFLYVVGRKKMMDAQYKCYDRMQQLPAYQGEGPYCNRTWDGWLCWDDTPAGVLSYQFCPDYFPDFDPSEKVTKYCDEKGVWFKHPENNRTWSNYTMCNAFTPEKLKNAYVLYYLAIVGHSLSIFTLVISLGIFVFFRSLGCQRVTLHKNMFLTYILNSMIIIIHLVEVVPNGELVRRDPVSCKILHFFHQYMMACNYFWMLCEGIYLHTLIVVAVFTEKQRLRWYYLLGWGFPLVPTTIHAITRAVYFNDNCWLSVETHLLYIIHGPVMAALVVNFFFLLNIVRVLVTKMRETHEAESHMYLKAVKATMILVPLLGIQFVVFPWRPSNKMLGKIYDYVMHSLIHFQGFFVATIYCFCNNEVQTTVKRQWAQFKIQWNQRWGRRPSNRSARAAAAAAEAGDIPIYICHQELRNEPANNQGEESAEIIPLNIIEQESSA

[4] = target: T3, rat calcitonin (a) receptor (Rattus norvegicus, UniProt P32214); test: Assay (II)b functional cAMP FlashPlate assay, rat calcitonin receptor; format: cell-based; conditions: Table 11; read-out: CTa receptor rat EC50
T3 construct: expressed in transfected cells; host or cells: BHK tk'ts 13
T3 sequence (P32214 25-479 isoform P32214-2 limits assumed): T1 sequence (P32214 25-479 isoform P32214-2 limits assumed)
Source text: as §1, §2, §3, §4, §5

[5] = target: T4, human amylin receptor (amylin 3(a) receptor: human calcitonin receptor + RAMP-3) (Homo sapiens, UniProt O60896+P30988); test: Assay (II)a functional CRE-luciferase assay, human amylin receptor; format: cell-based; conditions: Table 2; BHK amylin 3(a)-receptor/CRE-luc cells
T4 construct: expressed in transfected cells; host or cells: BHK570
T4 sequence (P30988 25-474): T2 sequence (P30988 25-474)
T4 sequence (O60896 24-148 partner): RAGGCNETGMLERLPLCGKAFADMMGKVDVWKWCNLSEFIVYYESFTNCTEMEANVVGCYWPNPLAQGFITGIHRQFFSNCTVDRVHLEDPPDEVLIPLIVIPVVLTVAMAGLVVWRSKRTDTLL

[6] = bistrispropane buffer, pH 6, pH 6.0, read-out: Solubility pH 6.0
[7] = bistrispropane buffer, pH 6.5, pH 6.5, read-out: Solubility pH 6.5
[8] = bistrispropane buffer, pH 7, pH 7.0, 18 hours at room temperature, Table 3, read-out: Solubility pH 7.0
[9] = bistrispropane buffer, pH 7, pH 7.0, Table 8, read-out: Solubility pH 7.0
[10] = bistrispropane buffer, pH 7, pH 7.0, read-out: Solubility pH 7.0
[11] = bistrispropane buffer, pH 7.5, pH 7.5, read-out: Solubility pH 7.5
[12] = bistrispropane buffer, pH 8, pH 8.0, read-out: Solubility pH 8.0
[13] = glycylglycine buffer, pH 3, pH 3.0, read-out: Solubility pH 3.0
[14] = glycylglycine buffer, pH 4, pH 4.0, 18 hours at room temperature, Table 2, read-out: Solubility pH 4.0
[15] = glycylglycine buffer, pH 4, pH 4.0, read-out: Solubility pH 4.0

solubility at 18 h [1, 6] | solubility at 18 h [1, 7] | solubility at 18 h [1, 8] | solubility at 18 h [1, 9] | solubility at 18 h ([1]; bistrispropane buffer, pH 7, pH 7.0, Table 9, read-out: Solubility pH 7.0) | solubility at 18 h [1, 10] | solubility at 18 h ([1]; bistrispropane buffer, pH 7.5, pH 7.5, Table 9, read-out: Solubility pH 7.5) | solubility at 18 h [1, 11] | solubility at 18 h [1, 12] | solubility at 18 h [1, 13] | solubility at 18 h [1, 14] | solubility at 18 h [1, 15] | solubility at 18 h ([1]; pH 5.0, read-out: Solubility pH 5.0) | EC50 [2] | EC50 [3] | EC50 [4] | EC50 [5] | solubility at 18 h ([1]; glycylglycine buffer, pH 5, pH 5.0, read-out: Solubility pH 5.0) | Structure (SMILES)
> 200 µM | > 200 µM | > 200 µM | > 200 µM | > 200 µM | > 200 µM | > 200 µM | > 200 µM | > 200 µM | > 200 µM | 116 µM (≈ 514 µg/mL) | 116 µM (≈ 514 µg/mL) | 5 µM (≈ 22.2 µg/mL) | 330 pM | 208 pM | 1730 pM | 212 pM | – | CC[C@H](C)[C@H](NC(=O)[C@@H]1CCCN1C(=O)CNC(=O)[C@H](Cc1ccccc1)NC(=O)[C@H](CO)NC(=O)[C@H](CO)NC(=O)[C@H](CO)NC(=O)[C@H](CO)NC(=O)[C@H](CCCNC(=N)N)NC(=O)[C@H](Cc1cnc[nH]1)NC(=O)[C@H](CC(C)C)NC(=O)[C@H](Cc1ccccc1)NC(=O)[C@H](CCC(=O)O)NC(=O)[C@H](C)NC(=O)[C@H](CC(C)C)NC(=O)[C@H](CCCNC(=N)N)NC(=O)[C@H](CCC(N)=O)NC(=O)[C@@H](NC(=O)[C@H](C)NC(=O)[C@@H]1CSSC[C@H](NC(=O)[C@H](Cc2cnc[nH]2)NC(=O)CC[C@H](NC(=O)CCCCCCCCCCCCCCCCCCC(=O)O)C(=O)O)C(=O)N[C@@H](CC(N)=O)C(=O)N[C@@H]([C@@H](C)O)C(=O)N[C@@H](C)C(=O)N[C@@H]([C@@H](C)O)C(=O)N1)[C@@H](C)O)C(=O)N[C@@H](CC(C)C)C(=O)N1CCC[C@H]1C(=O)N1CCC[C@H]1C(=O)N[C@H](C(=O)N[C@@H](CC(=O)O)C(=O)N[C@H](C(=O)NCC(=O)N[C@@H](CO)C(=O)N[C@@H](CC(=O)O)C(=O)N[C@H](C(=O)N[C@@H](Cc1ccc(O)cc1)C(N)=O)[C@@H](C)O)C(C)C)[C@@H](C)O [Example 9, N-alpha-[(S)-4-Carboxy-4-(19-carboxynonadecanoylamino)butyryl]-[His1,Glu14,His17,Arg18,Ser21,Ser22,Asp31,Asp35]-pramlintide] ({C20 diacid-γGlu}-HCNTATCATQRLAEFLHRSSSSFGPILPPTDVGSDTY-NH2; disulfide 2-7)
> 200 µM | > 200 µM | > 200 µM | > 200 µM | – | > 200 µM | – | > 200 µM | > 200 µM | > 200 µM | > 200 µM | > 200 µM | – | 121 pM | 67 pM | 109 pM | 92.5 pM | > 200 µM | CC[C@H](C)[C@H](NC(=O)[C@@H]1CCCN1C(=O)CNC(=O)[C@H](Cc1ccccc1)NC(=O)[C@H](CC(N)=O)NC(=O)[C@H](CC(N)=O)NC(=O)[C@H](CO)NC(=O)[C@H](CO)NC(=O)[C@H](Cc1c[nH]cn1)NC(=O)[C@H](Cc1cnc[nH]1)NC(=O)[C@H](CC(C)C)NC(=O)[C@H](Cc1ccccc1)NC(=O)[C@H](CCC(=O)O)NC(=O)[C@H](C)NC(=O)[C@H](CC(C)C)NC(=O)[C@H](CCCNC(=N)N)NC(=O)[C@H](CCC(N)=O)NC(=O)[C@@H](NC(=O)[C@H](C)NC(=O)[C@@H]1CSSC[C@H](NC(=O)[C@H](Cc2cnc[nH]2)NC(=O)CC[C@H](NC(=O)CCCCCCCCCCCCCCCCCCC(=O)O)C(=O)O)C(=O)N[C@@H](CC(N)=O)C(=O)N[C@@H]([C@@H](C)O)C(=O)N[C@@H](C)C(=O)N[C@@H]([C@@H](C)O)C(=O)N1)[C@@H](C)O)C(=O)N[C@@H](CC(C)C)C(=O)N1CCC[C@H]1C(=O)N1CCC[C@H]1C(=O)N[C@H](C(=O)N[C@@H](CC(N)=O)C(=O)N[C@H](C(=O)NCC(=O)N[C@@H](CO)C(=O)N[C@@H](CC(N)=O)C(=O)N[C@H](C(=O)N1CCC[C@H]1C(N)=O)[C@@H](C)O)C(C)C)[C@@H](C)O [Example 84, N-alpha-[(S)-4-Carboxy-4-(19-carboxynonadecanoylamino)butyryl]-[His1,Glu14,His17,Pro37]-pramlintide] ({C20 diacid-γGlu}-HCNTATCATQRLAEFLHHSSNNFGPILPPTNVGSNTP-NH2; disulfide 2-7)
